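Assay format: 96-well plates, 48-hour exposure. At the TGI there is no net growth.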
Key:
Assay in all cases: NCI tumour cell line growth inhibition, 48 h
M14 melanoma = system: M14 melanoma
SK-MEL-5 melanoma = system: SK-MEL-5 melanoma
MOLT-4 leukemia = system: MOLT-4 leukemia
OVCAR-4 ovarian = system: OVCAR-4 ovarian
SN12C renal = system: SN12C renal
MALME-3M melanoma = system: MALME-3M melanoma
LXFL 529 NSCLC = system: LXFL 529 NSCLC
SR leukemia = system: SR leukemia
786-0 renal = system: 786-0 renal
M19-MEL melanoma = system: M19-MEL melanoma
HT29 colon = system: HT29 colon
UACC-257 melanoma = system: UACC-257 melanoma
SNB-19 CNS = system: SNB-19 CNS
DMS 114 small cell lung = system: DMS 114 small cell lung
SNB-75 CNS = system: SNB-75 CNS
SF-539 CNS = system: SF-539 CNS
RPMI-8226 leukemia = system: RPMI-8226 leukemia
OVCAR-8 ovarian = system: OVCAR-8 ovarian
CCRF-CEM leukemia = system: CCRF-CEM leukemia
SF-268 CNS = system: SF-268 CNS
NCI-H460 lung = system: NCI-H460 lung
DMS 273 small cell lung = system: DMS 273 small cell lung
SF-295 CNS = system: SF-295 CNS
ACHN renal = system: ACHN renal
UACC-62 melanoma = system: UACC-62 melanoma
U251 CNS = system: U251 CNS
EKVX NSCLC = system: EKVX NSCLC
HCT-116 colon = system: HCT-116 colon
COLO 205 colon = system: COLO 205 colon
SK-MEL-2 melanoma = system: SK-MEL-2 melanoma
TK-10 renal = system: TK-10 renal
SK-MEL-28 melanoma = system: SK-MEL-28 melanoma
A549 NSCLC = system: A549 NSCLC
K-562 leukemia = system: K-562 leukemia
SW-620 colon = system: SW-620 colon
OVCAR-3 ovarian = system: OVCAR-3 ovarian
HOP-62 NSCLC = system: HOP-62 NSCLC
IGROV1 ovarian = system: IGROV1 ovarian
HL-60(TB) leukemia = system: HL-60(TB) leukemia
RXF 393 renal = system: RXF 393 renal
A498 renal = system: A498 renal
KM20L2 colon = system: KM20L2 colon
HCT-15 colon = system: HCT-15 colon
UO-31 renal = system: UO-31 renal
XF 498 CNS = system: XF 498 CNS
HCC-2998 colon = system: HCC-2998 colon
NCI-H226 lung = system: NCI-H226 lung
LOX IMVI melanoma = system: LOX IMVI melanoma
HOP-18 NSCLC = system: HOP-18 NSCLC
NCI-H522 lung = system: NCI-H522 lung
DLD-1 colon = system: DLD-1 colon
SK-OV-3 ovarian = system: SK-OV-3 ovarian
HOP-92 NSCLC = system: HOP-92 NSCLC
OVCAR-5 ovarian = system: OVCAR-5 ovarian
KM12 colon = system: KM12 colon
CAKI-1 renal = system: CAKI-1 renal
SNB-78 CNS = system: SNB-78 CNS
NCI-H23 lung = system: NCI-H23 lung

Measured: TGI

COC(=O)CC1NC(=O)[C@@H]1C(C)O (some centres not stated)
not listed: HOP-18 NSCLC | NCI-H522 lung | DLD-1 colon | SK-OV-3 ovarian | HOP-92 NSCLC | OVCAR-5 ovarian | KM12 colon | CAKI-1 renal | SNB-78 CNS | NCI-H23 lung
> 100 µM: all other assays above

O=c1c2ccccc2c(=O)n2n1CC=CC2
not listed: SR leukemia | NCI-H460 lung | HOP-62 NSCLC | XF 498 CNS
> 100 µM: all other assays above
